Data on 1 molecule can be found in article PMC6829886, “Inhibition of Non-Small Cell Lung Cancer Cells by Oxy210, an Oxysterol-Derivative that Antagonizes TGFβ and Hedgehog Signaling” (Cells, 2019).

Type in all cases: cell-based
For one data set, the system named is Liver X Receptor (LXR). Particulars: mouse.
Data set [1] relates to Hh pathway target genes Gli1 and Hip in Sufu-/- MEFs. Put plainly: Hh target gene expression in Sufu-/- mouse embryonic fibroblasts. Particulars: 72 h. As to the method:
(§1) Total RNA was extracted with the RNeasy Plus Mini Kit from Qiagen (Hilden, Germany) according to the manufacturer’s instructions. One microgram of RNA was reverse-transcribed using an iScript Reverse Transcription Supermix from Bio-Rad Laboratories (Hercules, CA, USA) to make single-stranded cDNA. The cDNAs were then mixed with Qi SYBR Green Supermix (Bio-Rad) for quantitative RT-PCR assay using a Bio-Rad I-cycler IQ quantitative thermocycler. All PCR samples were prepared in triplicate wells in a 96-well plate. After 40 cycles of PCR, melt curves were examined in order to ensure primer specificity. Fold changes in gene expression were calculated using the ΔΔCt method. Primers used for mouse were as follows: Oaz1 (5′-CCACTGCTTCGCCAGAGAG-3′) and (5′-CCCGGACCCAGGTTACTA-3′), Gli1 (5′- […]-3′ and 5′- GCT GATCCAGCCTAAGGTTCTC-3′), Ptch1 (5′-CCATCGGCGACAAGAACC-3′ and 5′-[…]-3′), Thbs1 (5′-[…]-3′ and 5′-CGGGGATCAGGTTGGCATT-3′), Cryab (5′-[…]-3′ and 5′-[…]-3′), Egr2 (5′-[…]-3′ and 5′-[…]-3′), CTGF (5′-GGGCCTCTTCTGCGATTTC-3′ and 5′-[…]-3′).
Figure 5 Oxy210 acts downstream of Smo. (a) Sufu-/- MEF cells were treated with DMEM containing 5% FBS in the presence or absence of Oxy210. After 72 h, RNA was extracted and analyzed by Q-RT-PCR for the expression of Hh target genes Gli1 and Hip, normalized to Oaz1 expression. […] Luciferase activity was measured and normalized to the Renilla luciferase activity. […]

The subject of data set [2] is Hh signaling (Gli1, Ptch1 mRNA) in NIH3T3-E1 cells. Put plainly: Ligand-induced Hh target gene expression (Q-RT-PCR) in NIH3T3 cells treated with CAPAN-1 conditioned medium. As to the method:
Growth medium in confluent […] tissue culture plates of CAPAN-1 cells was replaced with 10 mL of fresh growth medium and cells incubated for a total of 7 days. Conditioned medium (CM) containing Shh and Ihh was collected and spun down to remove any detached cells and debris, aliquoted, and stored frozen at −80 °C (21).
as §1
Statistical analyses were performed using the StatView 5 program (SAS Institute, Cary, NC, USA). All p values were calculated using ANOVA and Fisher’s projected least significant difference (PLSD) significance test. A value of p < 0.05 was considered significant. The IC 50 dose-response curves shown in Figure 4b and Figure 7a–c were modeled using a five-parameter logistic model. This model allows for asymmetric curves and automatically estimates the mean maximum and minimum response. Based on this model, IC 50 values were estimated corresponding to the dose halfway between min and max response. Models of dose versus response and dose versus log response were also evaluated (see Supplementary Materials). The R square statistic was computed as a measure of model fit.
Figure 4 Inhibition of ligand-induced Hedgehog and TGFβ signaling in mouse fibroblast cells. NIH3T3 cells were pretreated for 2 h with Oxy210 or various inhibitors as indicated in DMEM containing 5% FBS. […] After 72 h, RNA was extracted and analyzed by Q-RT-PCR for the expression of Hh target genes Gli1 and Ptch1 and normalized to Oaz1 expression (a,b). […] After 48 h, RNA was extracted and analyzed by Q-RT-PCR for the expression of TGFβ target genes as indicated and normalized to Oaz1 expression. […] Luciferase activity was measured and normalized to the Renilla luciferase activity. […]

Structures are written as SMILES.

As to `C[C@]12CC[C@H]3[C@@H](CC=C4C[C@@H](O)CC[C@@]43C)[C@@H]1CC[C@@H]2[C@](C)(O)CCc1cccnc1` [Oxy210, (3S,8S,9S,10R,13S,14S,17S)-17-((R)-2-hydroxy-4-(pyridin-3-yl)butan-2-yl)-10,13-dimethyl-2,3,4,7,8,9,10,11,12,13,14,15,16,17-tetradecahydro-1H-cyclopenta[a]phenanthren-3-ol], the ABCA1 expression result in the data set on Liver X Receptor (LXR) is reported as “absence of ABCA1 expression”. In data set [1], the “high baseline expression of Hh pathway target genes Gli1 and Hip” value is given as “significant inhibition”. In data set [2] (Gli1 mRNA, original scale Y, logistic curve model), the IC10 Estimate, dataset 1 - Fig 4b is 330 nM. In addition, the IC90 in data set [2] (Mus musculus, Gli1 mRNA, original scale Y, logistic curve model, read-out: IC90 Estimate, dataset 1 - Fig 4b) was 5500 nM. Also, in data set [2] (NIH3T3-E1 cells, CAPAN-1 CM, 72 h), the “mRNA expression of ligand-induced Hh target genes Gli1 and Ptch1” value is “robustly inhibited”. The IC50 in data set [2] (NIH3T3-E1 cells, CAPAN-1 CM, 72 h, Gli1 mRNA, five-parameter logistic model, ± SE, read-out: IC50 for inhibition of Gli1 expression) came out at 1830 ± 210 nM.

In general, IC90 refers to the concentration at which the effect reaches the 90% level. The term IC50 denotes the point on the concentration scale where inhibition reaches its midpoint.
